Laboratory results published in patent US20230115176A1 (Ra Pharmaceuticals, Inc., priority 2019, published 2023).
pIC50, pKd: −log10 of the molar value. In brackets after ≈: the same amount, converted by molar mass.

What was measured:
[1] = Kinetic solubility in PBS pH 7.4, HPLC-UV (Example 21, Table 27); format: physicochemical; settings: phosphate buffered saline, aqueous buffer, kinetic from dmso stock, 0.5 M PBS, shaken minimum 24 h at approximately 25° C., HPLC-UV 270 nm
Method in brief: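 10 mM DMSO stock diluted into 0.05 M PBS pH 7.4 (5% DMSO final), in triplicate, shaken ≥24 h at ~25 °C, then filtered by centrifugation. Supernatant concentration by HPLC-UV at 270 nm against external DMSO standards (15.6–500.0 μM).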

[2] = Permeability assay, unidirectional transport, Papp (Example 30, Table 34); format: in vitro ADME, canine; settings: dog, pH 7.4; MDCK-WT cell monolayers, A-to-B, 3 μM test compound, 37° C., duplicate determinations
Description: (§1) Permeability assays were carried out to provide a preliminary indication of suitability for oral dosing and compound permeability across the blood brain barrier. Unidirectional and bidirectional compound transport across Madin Darby canine kidney (MDCK) cell monolayers was assessed. For unidirectional transport assessment, transport across MDCK wild type (MDCK-WT) cell monolayers was assessed. For bidirectional transport, transport across MDCK-MDR1 cell monolayers was assessed. MDCK-MDR1 cells express the MDR1 gene encoding the P-glycoprotein (P-gp) efflux protein.
(§2) MDCK-WT and MDCK-MDR1 cells were plated onto permeable polycarbonate supports in 12-well Costar transwell plates and allowed to grow and differentiate for 3 days. After 3 days in culture, the culture medium (DMEM supplemented with 10% FBS) was removed from both sides of the transwell inserts and cells were rinsed with warm HBSS. After the rinse step, the chambers were filled with warm transport buffer (HBSS containing 10 mM HEPES, 0.25% BSA, pH 7.4) and the plates were pre-incubated at 37° C. for 30 minutes prior to TEER (Trans Epithelial Electric Resistance) measurements.
(§3) The buffer in the donor chamber (apical side for A-to-B assay, basolateral side for B-to-A assay) was removed and replaced with the working solution (3 μM test compound and 10 μM for control compounds in transport buffer). The plates were then placed at 37° C. under light agitation. At designated time points (30, 60 and 90 min), an aliquot of transport buffer from the receiver chamber was removed and replenished with fresh transport buffer. Samples were quenched with ice-cold ACN containing internal standard and then centrifuged to pellet protein. Resulting supernatants were further diluted with 50/50 ACN/H2O (Atenolol diluted in just water) and submitted for LC-MS/MS analysis. Apparent permeability (Pap) values were calculated from duplicate determinations. Atenolol and propranolol were tested as low and […] permeability references.
Papp values indicate extent of compound permeation across monolayers.

[3] = system: P-glycoprotein (P-gp, MDR1); test: Permeability assay, bidirectional transport, efflux ratio (Example 30, Table 34); format: in vitro ADME, canine; settings: dog, MDCK-MDR1, pH 7.4; read-out: MDCK-MDR efflux ratio
Description: as §1, §2, §3
Efflux ratios were calculated for bidirectional transport across MDCK-MDR1 cell monolayers as an indication of compound efflux by P-gp. The efflux ratio is calculated using the ratio of mean Papp values for B to A transport to mean Papp values for A to B transport [Papp(BA)/Papp(AB)].

Human C5 [4] = biological target: T1, Human C5 (Homo sapiens, UniProt P01031); test: Red blood cell (RBC) hemolysis assay, luminescent (Example 28, Table 32); format: cell-based; settings: sheep EA cells, 1.5% C5-depleted human serum, 0.5 nM human C5, 1 hour at 37° C., luminescence (Table 32)
T1 construct: purchased Complement Technology
T1 sequence (P01031 19-1676): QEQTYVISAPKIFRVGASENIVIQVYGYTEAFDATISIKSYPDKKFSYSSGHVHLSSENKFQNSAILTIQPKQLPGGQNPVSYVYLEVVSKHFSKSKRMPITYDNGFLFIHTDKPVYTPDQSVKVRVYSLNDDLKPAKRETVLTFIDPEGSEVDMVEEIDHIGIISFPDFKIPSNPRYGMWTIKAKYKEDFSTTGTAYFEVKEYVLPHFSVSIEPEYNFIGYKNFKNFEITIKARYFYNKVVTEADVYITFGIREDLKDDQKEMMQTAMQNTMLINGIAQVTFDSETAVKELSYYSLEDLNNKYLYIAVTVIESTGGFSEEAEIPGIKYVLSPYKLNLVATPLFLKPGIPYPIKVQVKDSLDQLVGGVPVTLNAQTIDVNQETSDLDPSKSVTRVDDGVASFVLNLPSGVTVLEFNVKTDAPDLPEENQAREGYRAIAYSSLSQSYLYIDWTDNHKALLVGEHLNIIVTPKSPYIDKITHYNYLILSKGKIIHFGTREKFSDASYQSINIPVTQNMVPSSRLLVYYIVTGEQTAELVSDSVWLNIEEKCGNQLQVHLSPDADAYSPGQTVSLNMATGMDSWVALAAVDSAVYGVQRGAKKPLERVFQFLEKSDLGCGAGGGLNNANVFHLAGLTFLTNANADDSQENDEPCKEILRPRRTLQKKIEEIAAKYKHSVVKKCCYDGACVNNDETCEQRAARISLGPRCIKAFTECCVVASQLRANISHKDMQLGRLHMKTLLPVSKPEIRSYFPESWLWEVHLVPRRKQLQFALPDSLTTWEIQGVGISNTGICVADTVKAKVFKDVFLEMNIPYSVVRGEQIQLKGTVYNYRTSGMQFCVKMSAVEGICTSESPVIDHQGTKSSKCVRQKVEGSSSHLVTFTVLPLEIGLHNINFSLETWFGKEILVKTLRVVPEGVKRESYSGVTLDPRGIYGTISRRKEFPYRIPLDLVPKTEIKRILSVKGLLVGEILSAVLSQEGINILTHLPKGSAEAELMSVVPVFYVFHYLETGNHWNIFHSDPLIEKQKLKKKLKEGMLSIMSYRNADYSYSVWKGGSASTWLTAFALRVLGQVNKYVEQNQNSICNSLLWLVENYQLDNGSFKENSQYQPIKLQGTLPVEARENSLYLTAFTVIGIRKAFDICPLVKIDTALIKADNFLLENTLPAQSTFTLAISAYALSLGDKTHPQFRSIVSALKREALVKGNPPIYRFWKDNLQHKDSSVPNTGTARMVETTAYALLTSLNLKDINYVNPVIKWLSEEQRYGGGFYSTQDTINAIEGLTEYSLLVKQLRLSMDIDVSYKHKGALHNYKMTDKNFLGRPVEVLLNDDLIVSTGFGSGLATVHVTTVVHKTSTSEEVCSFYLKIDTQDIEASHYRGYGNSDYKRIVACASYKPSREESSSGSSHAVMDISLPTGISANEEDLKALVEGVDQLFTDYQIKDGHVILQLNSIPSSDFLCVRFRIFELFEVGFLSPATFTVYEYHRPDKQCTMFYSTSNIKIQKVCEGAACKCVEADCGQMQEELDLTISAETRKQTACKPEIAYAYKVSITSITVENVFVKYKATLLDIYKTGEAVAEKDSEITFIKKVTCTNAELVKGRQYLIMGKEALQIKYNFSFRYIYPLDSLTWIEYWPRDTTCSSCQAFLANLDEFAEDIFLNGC
Description: Sheep red blood cells coated with rabbit anti-sheep erythrocyte antiserum (EA cells; Complement Technology, Tyler, Tex.) were used to assay compound inhibitory activity of the classical complement activation pathway. Briefly, the EA cells were washed once and resuspended in the same volume of GVB++ buffer (Complement Technology, Tyler, Tex.). 25 μL of EA cells were then distributed into each well of 384-well tissue culture plates using Apricot iPipette Pro (Apricot Designs; Covina, Calif.). Compounds were tested in 10 points of final concentrations ranging from 16.67 μM to 1.65 μM in a 6-fold titration series. Compounds were dispensed into 384-well plates from 6.7 mM and 3.35 μM DMSO working stocks using an HP Digital Dispenser (HP; Corvallis, Oreg.). The reactions also contained 1.5% (v/v) C5-depleted human serum (Complement Technology). Hemolysis was induced by addition of human C5 (Complement Technology) at a concentration of 0.5 nM and plates were incubated for 1 hour at 37° C. in a cell culture incubator. The extent of hemolysis was measured by ability of released hemoglobin to catalyze luminol in the presence of hydrogen peroxide. Luminescence was then measured using a plate reader. Luminescence measurements were used to prepare a dose-response curve. From the curve, the half maximal inhibitory concentration (IC50) for each compound was determined, where the IC50 represents the concentration of each compound needed to reduce red blood cell hemolysis by half.

[5] = biological target: T2, human C5 complement protein (Homo sapiens, UniProt P01031); test: Surface plasmon resonance (SPR), immobilized human C5, 37° C. (Example 27, Table 31); format: binding; settings: lowest value obtained where a range of concentrations was analyzed (Table 31)
T2 sequence (P01031 19-1676): as above

Human C5 [6] = biological target: T1, Human C5; test: Red blood cell (RBC) hemolysis assay, luminescent (Example 24, Table 29); format: cell-based; settings: sheep EA cells, […] C5-depleted human serum, 0.5 nM human C5, 1 hour at 37° C., luminescence (Table 29)
Text: (§4) Numbers in parenthesis following the compound number indicate alternate enantiomers (as distinguished by retention time during chromatographical separation).

[7] = biological target: T2, human C5 complement protein; test: Surface plasmon resonance (SPR), immobilized human C5, 37° C. (Example 23, Table 28); format: binding; settings: lowest value obtained where a range of concentrations was analyzed (Table 28)
[8] = biological target: T2, human C5 complement protein; test: Surface plasmon resonance (SPR), immobilized human C5, 37° C. (Example 18, Table 24); format: binding; settings: lowest value obtained where a range of concentrations was analyzed
Human C5 [9] = biological target: T1, Human C5; test: Hemolysis assay, luminescent, classical complement pathway (Example 4, Table 7); format: cell-based; settings: sheep EA cells, 1.5% C5-depleted human serum, 0.5 nM human C5, luminescence readout
Text: as §4

Human C5 [10] = biological target: T1, Human C5; test: Surface plasmon resonance (SPR), compounds on immobilized human C5 (Example 2, Table 5); format: binding; settings: lowest value where a range of compound concentrations were analyzed
Description: Surface plasmon resonance (SPR) technology was used to evaluate affinity, specificity, and kinetics of interactions between compounds and complement protein C5 in real time without the need for labeling.
SensiQ FE SPR system (SensiQ Technologies, Oklahoma City, Okla.) was used to provide sensitive and accurate detection of binding of small molecules to the very large C5 protein (MW=195,000 Da). The chip was prepared by preconditioning the sensor according to the protocol of the SensiQ FE using 10 mM HCl, 50 mM NAOH and 0.1% SDS. The sensor chip was activated by using a mixture of fresh EDAC (1-ethyl-3-(-3-dimethylaminopropyl) carbodiimide) (Sigma Co., St. Louis, Mo.) and NHS (N-hydroxy succinimide) (Sigma Co., St. Louis, Mo.). Human C5 was surface immobilized to a Pioneer Biosensor chip via random amine coupling (>12,000 RU) which makes use of the N-terminus and ε-amino groups of lysine residues of the protein ligand. Immobilization was done by injecting 30-40 μg/ml C5 in 10 mM NaAc pH 4.5 onto designated channels at a rate of 10 μL/minute for 12 minutes, targeting RL>12000 RU for small molecules.
Compounds were diluted in DMSO in a format of 100-fold final concentration and 3-fold serial dilution (5 or 6 dilutions). The 100-fold compounds were transferred to one-fold DMSO-free assay buffer in the 96-well test plate. The compound solution was injected at a rate of 60 μL/minute for 30-60 seconds, followed by 60-90 seconds dissociation time, buffer flushing and/or priming. Blank solution (1% DMSO assay buffer) was run for every 6 injections of compounds. Double reference by subtracting both blank channel and reference channel was applied for data processing. Titration of C5 binding compounds to the C5-immobilized biosensor chip surface led to interactions between C5 and potential binders, and the resulting changes of surface refractive index were sensitively measured by the system.
SPR data were analyzed with the managing software provided by SensiQ and equilibrium dissociation constant (KD) values were determined for each compound. Where a range of compound concentrations were analyzed, the lowest value obtained is presented.

purified human C5 = purified human C5 (Homo sapiens, UniProt P01031); test: Red blood cell hemolysis assay, optical, absorbance 412 nm (Example 3, Table 6); format: cell-based; settings: antibody-sensitized sheep erythrocytes, 1.5% human C5 depleted sera, 0.5 nM human C5; average where replicates
purified human C5, sequence (P01031 19-1676): as above

[11] = Drug-Metabolism-and-Pharmacokinetics (DMPK), single IV and oral dose in rats (Example 5); settings: rat, in vivo; fasted male Sprague Dawley rats, 1 mg/kg IV and 10 mg/kg PO, 5% DMSO: 20% HP-Beta-CD
Description: Single intravenous (IV) and oral dose (P0, per oral) administration of C5 inhibitors were carried out in rats. Rats were then analyzed for Drug-Metabolism-and-Pharmacokinetic (DMPK) properties, used to determine the pharmacokinetics and oral bioavailability of the C5 inhibitors.
SM0011 was formulated as a clear solution at 1 mg/mL in 5% DMSO: 20% HP-Beta-CD. Fasted male Sprague Dawley rats were dosed with the solution at 1 MPK (mg/kg) IV and 10 MPK (mg/kg) PO. Analysis of the DMPK properties of the compound were used to determine the bioavailability.

[12] = system: CD59-deficient RBCs from patients with paroxysmal nocturnal hemoglobinuria (PNH); test: Hemolysis inhibition with PNH patient cells, flow cytometry for CD59 and plate assay (Example 6); format: cell-based, human; settings: FIG. 2
Description: Flow cytometry studies were carried out to assess the ability of compounds to inhibit hemolysis of CD59-deficient RBCs from patients with paroxysmal nocturnal hemoglobinuria (PNH). […] To induce hemolysis, donor-matched serum was acidified to pH 6.4 with HCl. Compounds, serum, and RBCs, 2.5% volume per volume (v/v), were incubated for 18 hours at 37° C. After incubation, cells were washed and re-suspended in 1 ml fluorescence-associated cell sorting (FACS) buffer (0.1% BSA IgG-free in PBS, 0.1% Sodium Azide). Then, anti-CD59 antibody conjugated with phycoerythrin was added at a final concentration of 0.25 μg/ml to 100 μl of cell suspension and incubated at 4° C. for 30 minutes. Cells were then washed twice with cold FACS buffer, re-suspended in FACS buffer and analyzed with a BD Accuri C6 Flow Cytometer (BD Biosciences, San Jose, Calif.) for CD59 levels. The level of CD59-positive cells was monitored as a measure of complement-mediated hemolysis of PNH type III cells. A negative control using non-acidified serum was used to establish a baseline of CD59 expression under non-hemolytic conditions (FIG. 1A).

| Structure (SMILES) | solubility kinetic [1] [µM] | Papp A→B at 3 μM [2] [×10⁻⁶ cm/s] | efflux ratio at 3 μM [3] | pIC50 (Human C5 [4]) | pKd [8] | further results |
| --- | --- | --- | --- | --- | --- | --- |
| CCCCCOc1cc(N2CC[C@H](C)N(Cc3ccnc4c3c(Cl)cn4CC(=O)N3CC(O)C3)C2=O)ccc1OC [SC0120] | 96 (≈ 56.1 µg/mL) | 6.6 | 98 | 8.82 | – | pKd [5]: 11.00 |
| CCCCCOc1cc(N2CC3(CC3)CN(Cc3ccccc3OC)C2=O)ccc1OC [SC0064] | – | – | – | – | – | pIC50 (Human C5 [6]): 7.63; pKd [7]: 7.95 |
| COc1cc(CC(=O)N(C)C)ccc1CN1CCCN(c2ccc(OC)c(OCCCC3CC3)c2)C1=O [CU0555] | – | 23 | 15 | – | 8.97 | – |
| CCCCCOc1cc(N2CCCN(Cc3ccnc4c3c(Cl)cn4CC(=O)N3CCC3)C2=O)ccc1OC [CU0560] | 31 (≈ 17.2 µg/mL) | 23 | 23 | – | 10.27 | – |
| CCCCCOc1cc(N2CC[C@@H](C)N(Cc3cccc4c3c(Cl)cn4CC(=O)N(C)C)C2=O)ccc1OC [SC0110] | – | 15.3 | 18 | 8.89 | – | – |
| CCCCCOc1cc(N2CC3(COC3)CN(Cc3ccccc3OC)C2=O)ccc1OC [SC0066] | – | – | – | – | – | pIC50 (Human C5 [6]): 7.40; pKd [7]: 7.36 |
| CCCCCOc1cc(N2CCCN(Cc3ccnc4c3c(Cl)cn4CC(=O)N(C)CC#N)C2=O)ccc1OC [CU0529] | 50 (≈ 28.4 µg/mL) | 17.1 | 75 | – | 9.49 | – |
| CCCCCOc1cc(N2CC[C@H](C)N(Cc3cccc4c3c(Cl)cn4CC(=O)N(C)C)C2=O)ccc1OC [SC0112] | 13 (≈ 7.22 µg/mL) | 16.4 | 12 | 8.89 | – | pKd [5]: 9.55 |
| COc1cc(CC(=O)N[C@@H]2CN(C)C[C@@H]2F)ccc1CN1C(=O)N(c2ccc(OC)c(OCCCC3CC3)c2)CC[C@@H]1C [SC0109] | – | 5.7 | 144 | 8.92 | – | – |
| COc1ccc(NC(=O)N[C@@H](CO)c2ccccc2)cc1OCCCC(C)C [SM0011] | – | – | – | – | – | pIC50 (Human C5 [9]): 7.22; pKd (Human C5 [10]): 6.80; pIC50 (purified human C5): 6.57; bioavailability [11]: ~30% |
| CCCCCOc1cc(N2CCCN(Cc3ccnc4c3c(Cl)cn4CC(=O)N(C)C)C2=O)ncc1OC [CU0558] | 271 (≈ 147 µg/mL) | 25.2 | 9 | – | 9.82 | – |
| COc1ccc(NC(=O)NC(CO)c2ccccc2O)cc1OCCCC(C)C (stereo not drawn) [SM0001, 1-(2-hydroxy-1-(2-hydroxyphenyl)ethyl)-3-(4-methoxy-3-((4-methylpentyl)oxy)phenyl)urea] | – | – | – | – | – | inhibition of PNH patient hemolysis with increasing concentrations [12]: dose-dependent manner; pKd (Human C5 [10]): 7.31; pIC50 (purified human C5): 7.68 |
